# Measurements published in PubChem BioAssay (NCI).
# Values joined by “and” are separate entries in the source; they are usually repeats but may differ in a detail not shown here. Identical values can stand only once.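 How tested: cells in 96-well plates exposed to compound for 48 hours at five concentrations. Here, GI50 denotes the concentration required for 50% inhibition of growth. The concentration for full growth arrest is given as TGI.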
# What was measured:
# Experiment in all cases: NCI tumour cell line growth inhibition, 48 h
# RPMI-8226 leukemia = system: RPMI-8226 leukemia
# SW-620 colon = system: SW-620 colon
# CAKI-1 renal = system: CAKI-1 renal
# SR leukemia = system: SR leukemia
# SNB-75 CNS = system: SNB-75 CNS
# CCRF-CEM leukemia = system: CCRF-CEM leukemia
# DU-145 prostate = system: DU-145 prostate
# SF-295 CNS = system: SF-295 CNS
# K-562 leukemia = system: K-562 leukemia
# MOLT-4 leukemia = system: MOLT-4 leukemia
Compound,TGI (RPMI-8226 leukemia) [µM],TGI (SW-620 colon),TGI (CAKI-1 renal),TGI (SR leukemia) [µM],TGI (SNB-75 CNS),TGI (CCRF-CEM leukemia) [µM],TGI (DU-145 prostate) [µM],TGI (SF-295 CNS),TGI (K-562 leukemia),TGI (MOLT-4 leukemia),GI50 (RPMI-8226 leukemia) [µM],GI50 (SW-620 colon) [µM],GI50 (CAKI-1 renal) [µM],GI50 (SR leukemia) [µM],GI50 (SNB-75 CNS) [µM],GI50 (CCRF-CEM leukemia) [µM],GI50 (DU-145 prostate) [µM],GI50 (SF-295 CNS) [µM],GI50 (K-562 leukemia) [µM],GI50 (MOLT-4 leukemia)
c1cncc(CNCc2cccnc2)c1,> 100,> 100 µM,> 100 µM,> 100,> 100 µM,> 100,> 100,> 100 µM,> 100 µM,> 100 µM,–,–,–,–,–,–,–,–,–,–
O=c1cc(N/N=C/c2ccc(F)cc2)c2cc(Cl)ccc2[nH]1,> 100,> 100 µM,> 100 µM,85.6,83.1 µM,> 100,> 100,> 100 µM,93.2 µM,> 100 µM,17,26.8,23.5,24.5,12.7,12,33.9,21.9,13.2,4.07 µM
COC(=O)COc1ccc(/C=C2/N=C(c3ccccc3)N(c3c(C)n(C)n(-c4ccccc4)c3=O)C2=O)cc1,44.8,50.6 µM,> 100 µM,69.3,30.7 µM,50.2,30.2,> 100 µM,> 100 µM,59.8 µM,21.7,22,> 100,23.1,16.7,13.2,16.6,33.5,30.4,23 µM
COc1cc2c(cc1O)CC1c3c(cc(O)c(OC)c3-2)CCN1C (stereo unspecified),> 100,> 100 µM,> 100 µM,> 100,> 100 µM,> 100,> 100,> 100 µM,> 100 µM,> 100 µM,–,–,–,–,–,–,–,–,–,–
Cc1cc(N=C2C=C(Br)C(=O)C(Br)=C2)cc(CN(CC(=O)O)CC(=O)O)c1O,> 100,> 100 µM,> 100 µM,> 100,> 100 µM,> 100,> 100,> 100 µM,> 100 µM,> 100 µM,–,–,–,–,–,–,–,–,–,–
Cc1c(-c2ccnc(N)n2)c2c(n1Cc1ccccc1)C(=O)c1ccccc1C2=O,> 100,> 100 µM,52.9 µM,4.52,–,> 100,41.2,15 µM,44.4 µM,–,> 100,6.82,4.66,1.84,–,> 100,9.82,3.12,2.92,–
Cc1nn2c(/C=C3/C(=O)Nc4cc(Cl)ccc43)c(-c3ccccc3)nc2s1,–,> 100 µM,4.38 µM,> 100,8.44 µM,> 100,18.2,38.1 µM,> 100 µM,> 100 µM,–,3,1.87,3.09,1.6,4.35,4.02,11.1,4.27,4.11 µM
C1=C2CCCC3=Cc4ccccc4OC23Oc2ccccc21,15,53.6 µM,> 100 µM,> 100,5.84 µM,25.9,69.1,> 100 µM,> 100 µM,> 100 µM,3.38,3.36,3.71,2.82,1.64,3.47,3.73,3.99,3.54,3.66 µM
C1CC[N-]CC1.CC(=N\O)/C(C)=N/O.CC(=N\O)/C(C)=N/O.OC1[CH-]CCCC1.[Co+2],> 100,> 100 µM,> 100 µM,62.6,> 100 µM,–,> 100,> 100 µM,> 100 µM,99.1 µM,42.4,31.6,34.7,20.5,26.9,–,69.1,> 100,33.4,26.4 µM
COc1ccc(/C(Cl)=C/c2cc(OC)ccc2OC)cc1,> 100,> 100 µM,–,> 100,> 100 µM,> 100,–,> 100 µM,> 100 µM,> 100 µM,–,–,–,–,–,–,–,–,–,–
CC(C)Cc1ccc(C(C)CC2=CCC(CN(C)C)C2=O)cc1 (stereo unspecified),5.24,4.48 µM,3.28 µM,3.96,29.5 µM,12.6,30.2,32.1 µM,4.04 µM,5.8 µM,–,–,–,–,–,–,–,–,–,–
COc1cc2c(cc1OCCCCCCN1CCN(CC(=O)Nc3ccc(Cl)cc3C(=O)c3ccccc3Cl)CC1)N=CC1CCCN1C2=O (stereo unspecified),–,0.591 µM,0.421 µM,0.194,0.472 µM,–,0.715,0.461 µM,–,0.426 µM,–,0.211,0.151,0.0447,0.169,–,0.254,0.18,0.193,0.167 µM
CC(=O)O[C@]1(C)OC(=O)[C@@H](CC(C)C)N1[N+](=O)[O-],> 100,> 100 µM,–,> 100,> 100 µM,> 100,–,> 100 µM,> 100 µM,> 100 µM,–,–,–,–,–,–,–,–,–,–
CC(C)=CCC(OC(=O)C=C(C)C)C1=CC(=O)c2c(O)ccc(O)c2C1=O (stereo unspecified),–,1.27 µM and 0.867 µM,3.12 µM and 2 µM,> 100,16.3 µM and 13.7 µM,–,3.92,20.9 µM and 6.13 µM,1.13 µM and 1.35 µM,1.29 µM and 1.42 µM,0.724,0.327,–,0.123,3.87,0.0241,1.72,2.15,0.0709,0.182 µM and 0.0424 µM
CCOC(=O)N1CCc2cc(OC)c(OC)cc2/C1=C\c1ccc(OC)c(OC)c1,> 100,> 100 µM,–,> 100,79.3 µM,72,–,61.2 µM,> 10 µM,91.1 µM,–,–,–,–,–,–,–,–,–,–
O=c1[nH]c2nc(NC3CCOCC3)ncc2cc1Oc1ccc(F)cc1F,> 25,> 25 µM,> 25 µM,> 25,> 25 µM,–,> 25,> 25 µM,> 25 µM,> 25 µM,> 25,> 25,> 25,> 25,> 8.27,–,> 25,> 25,> 25,> 25 µM
